Among the data in ChEMBL document CHEMBL5236577, “Targeting Aggrecanases for Osteoarthritis Therapy: From Zinc Chelation to Exosite Inhibition” (J Med Chem, 2022) are IC50 values, retold here.

The target of one assay is T1, Matrilysin (Homo sapiens, UniProt P09237).
T1 sequence (P09237 whole entry): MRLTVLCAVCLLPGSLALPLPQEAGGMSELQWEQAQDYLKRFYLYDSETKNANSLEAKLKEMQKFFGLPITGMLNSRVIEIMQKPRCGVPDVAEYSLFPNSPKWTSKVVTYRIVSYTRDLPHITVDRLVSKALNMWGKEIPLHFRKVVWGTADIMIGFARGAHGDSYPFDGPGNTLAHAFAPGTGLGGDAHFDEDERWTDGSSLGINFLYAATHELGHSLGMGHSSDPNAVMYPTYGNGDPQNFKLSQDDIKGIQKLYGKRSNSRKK
Put plainly: Inhibition of recombinant human MMP7.

Assay [1] has as its target T2, A disintegrin and metalloproteinase with thrombospondin motifs 5 (Homo sapiens, UniProt Q9UNA0).
T2 sequence (Q9UNA0 whole entry): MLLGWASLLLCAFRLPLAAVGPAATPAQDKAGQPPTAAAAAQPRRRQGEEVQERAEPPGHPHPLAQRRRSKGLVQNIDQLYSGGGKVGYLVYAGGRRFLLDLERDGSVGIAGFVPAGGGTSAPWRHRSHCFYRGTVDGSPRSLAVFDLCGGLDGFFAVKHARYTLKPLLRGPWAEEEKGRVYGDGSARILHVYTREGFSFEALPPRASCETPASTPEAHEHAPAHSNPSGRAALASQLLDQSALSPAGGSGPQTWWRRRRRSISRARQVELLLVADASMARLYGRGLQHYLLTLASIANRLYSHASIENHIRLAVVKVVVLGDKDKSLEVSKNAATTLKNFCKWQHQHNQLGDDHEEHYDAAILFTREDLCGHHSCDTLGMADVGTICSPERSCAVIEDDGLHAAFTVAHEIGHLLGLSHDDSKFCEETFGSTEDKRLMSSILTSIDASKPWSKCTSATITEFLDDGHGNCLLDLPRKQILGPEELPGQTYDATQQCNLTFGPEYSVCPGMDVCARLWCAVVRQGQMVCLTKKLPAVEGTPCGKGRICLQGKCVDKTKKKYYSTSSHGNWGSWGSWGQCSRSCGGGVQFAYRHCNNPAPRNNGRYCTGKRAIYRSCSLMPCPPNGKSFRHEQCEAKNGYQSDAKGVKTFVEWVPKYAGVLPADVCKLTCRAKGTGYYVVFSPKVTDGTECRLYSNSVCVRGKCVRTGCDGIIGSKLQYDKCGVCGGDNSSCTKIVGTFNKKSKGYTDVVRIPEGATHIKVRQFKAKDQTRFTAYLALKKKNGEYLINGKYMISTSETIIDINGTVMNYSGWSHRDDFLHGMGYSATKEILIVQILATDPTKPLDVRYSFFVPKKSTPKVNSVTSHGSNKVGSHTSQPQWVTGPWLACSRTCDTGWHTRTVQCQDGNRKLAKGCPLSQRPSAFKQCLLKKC
Put plainly: Inhibition of recombinant human ADAMTS-5.

The target of assay [2] is 72 kDa type IV collagenase (Homo sapiens, UniProt P08253). The experiment in a line: Inhibition of recombinant human MMP2.
Chain of 72 kDa type IV collagenase (P08253 whole entry): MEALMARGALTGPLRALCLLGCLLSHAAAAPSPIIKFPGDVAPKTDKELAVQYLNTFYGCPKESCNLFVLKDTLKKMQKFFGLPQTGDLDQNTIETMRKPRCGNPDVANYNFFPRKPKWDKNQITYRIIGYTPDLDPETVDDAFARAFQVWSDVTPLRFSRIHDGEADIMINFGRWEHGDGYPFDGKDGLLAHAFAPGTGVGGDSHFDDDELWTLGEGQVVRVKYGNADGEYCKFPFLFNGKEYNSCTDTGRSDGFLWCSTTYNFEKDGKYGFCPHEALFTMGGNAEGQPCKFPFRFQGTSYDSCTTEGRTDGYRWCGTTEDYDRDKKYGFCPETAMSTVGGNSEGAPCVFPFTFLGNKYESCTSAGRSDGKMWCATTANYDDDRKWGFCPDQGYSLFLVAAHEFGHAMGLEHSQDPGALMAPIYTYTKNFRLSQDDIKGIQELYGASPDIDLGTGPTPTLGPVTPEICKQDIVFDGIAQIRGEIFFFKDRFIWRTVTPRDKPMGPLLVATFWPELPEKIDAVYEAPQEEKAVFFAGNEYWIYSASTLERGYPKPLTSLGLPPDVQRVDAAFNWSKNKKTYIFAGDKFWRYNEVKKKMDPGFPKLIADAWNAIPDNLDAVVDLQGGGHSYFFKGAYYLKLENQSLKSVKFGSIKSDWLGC
A further assay deals with Collagenase 3 (Homo sapiens, UniProt P45452). The experiment in a line: Inhibition of recombinant human MMP13.
Assay [3] concerns the target T3, A disintegrin and metalloproteinase with thrombospondin motifs 4 (Homo sapiens, UniProt O75173).
T3 sequence (O75173 whole entry): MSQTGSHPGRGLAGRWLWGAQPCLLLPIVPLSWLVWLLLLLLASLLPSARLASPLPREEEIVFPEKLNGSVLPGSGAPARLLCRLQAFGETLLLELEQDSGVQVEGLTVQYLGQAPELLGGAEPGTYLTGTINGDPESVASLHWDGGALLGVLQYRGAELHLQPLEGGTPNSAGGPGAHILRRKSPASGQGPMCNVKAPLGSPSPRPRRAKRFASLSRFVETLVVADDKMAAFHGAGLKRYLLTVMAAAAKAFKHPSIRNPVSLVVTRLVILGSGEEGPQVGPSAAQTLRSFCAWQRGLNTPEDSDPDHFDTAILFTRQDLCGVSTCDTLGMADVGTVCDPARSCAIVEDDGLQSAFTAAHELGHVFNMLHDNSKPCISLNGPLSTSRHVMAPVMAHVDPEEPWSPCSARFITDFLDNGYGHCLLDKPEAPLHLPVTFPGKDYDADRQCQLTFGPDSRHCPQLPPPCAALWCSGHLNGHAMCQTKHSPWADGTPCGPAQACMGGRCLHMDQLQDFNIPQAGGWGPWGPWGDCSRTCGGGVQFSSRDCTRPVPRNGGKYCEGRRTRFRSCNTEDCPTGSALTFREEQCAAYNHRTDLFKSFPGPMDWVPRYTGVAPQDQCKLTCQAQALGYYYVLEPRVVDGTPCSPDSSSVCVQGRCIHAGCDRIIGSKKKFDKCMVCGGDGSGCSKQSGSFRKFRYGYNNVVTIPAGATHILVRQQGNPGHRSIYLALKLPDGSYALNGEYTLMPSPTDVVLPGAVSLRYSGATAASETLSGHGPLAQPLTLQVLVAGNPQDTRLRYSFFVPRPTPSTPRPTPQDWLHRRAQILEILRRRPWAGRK
Put plainly: Inhibition of recombinant human ADAMTS-4.

As usually defined, the IC50 is the concentration that inhibits the measured activity by half. Take `O=c1cc(-c2ccc(O)c(O)c2)oc2cc(O)cc(O)c12` [LUTEOLIN]: the IC50 was 68.2 µM on Matrilysin; 12.2 µM in assay [1]; 40.9 µM in assay [2]; 18.3 µM at Collagenase 3; 9.8 µM in assay [3].
